From US10143730B2, “Peptides and combination of peptides for use in immunotherapy against various cancers” (immatics biotechnologies GmbH, priority 2015, dated 2018)

Experiments:
[1] = target: T1, HLA-A*02 (Homo sapiens, UniProt P04439, D140Y/D185E/D98H/E176V/E277Q/G131W/G231S/I119V/I121R/I166T/I218V/L300P/N151K/N90K/P208A/P217A/Q86G/Q94H/R138H/R169H); assay: MHC binding assay, UV-ligand exchange with beta2m ELISA (peptide exchange yield); settings: binding to HLA-A*02
T1 construct: made in house
How it was run: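 pMHC complexes formed by UV-induced cleavage of a photolabile peptide and exchange with candidate peptide; exchange yield measured by streptavidin-capture ELISA detecting β2m with HRP anti-β2m, TMB, A450. Exchange samples diluted 100-fold; refolded HLA-A*02:01/MLA-001 monomers (15-500 ng/ml) as standards; incubations 1 h, 37 °C.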

[2] = system: CD8+ T cells of healthy HLA-A*02+ donors; assay: In vitro T-cell priming with aAPCs loaded with HLA-A*02/peptide complexes and anti-CD28, multimer staining; assay type: cell-based, human; settings: for Wells positive [%] (in vitro immunogenicity): HLA-A*02 peptides (SEQ ID 1-157, 229-266), peptide-specific multimer+ CD8+ T cells after aAPC priming; for Wells (in vitro immunogenicity): HLA-A*02-binding peptides (Table 7A), Table 19A
Description: FIGS. 4A to 4D show exemplary results of peptide-specific in vitro CD8+ T cell responses of a healthy HLA-A*02+ donor. CD8+ T cells were primed using artificial APCs coated with anti-CD28 mAb and HLA-A*02 in complex with Seq ID No 27 peptide (FIG. 4A, left panel), Seq ID No 229 peptide (FIG. 4B, left panel), Seq ID No 230 peptide (FIG. 4C, left panel) and Seq ID No 235 peptide (FIG. 4D, left panel), respectively. After three cycles of stimulation, the detection of peptide-reactive cells was performed by 2D multimer staining with A*02/Seq ID No 27 (FIG. 4A), A*02/Seq ID No 229 (FIG. 4B), A*02/Seq ID No 230 (FIG. 4C) or A*02/Seq ID No 235 (FIG. 4D). Right panels (FIGS. 4A, 4B, 4C and 4D) show control staining of cells stimulated with irrelevant A*02/peptide complexes. Viable singlet cells were gated for CD8+ lymphocytes. Boolean gates helped excluding false-positive events detected with multimers specific for different peptides. Frequencies of specific multimer+ cells among CD8+ lymphocytes are indicated.
In order to obtain information regarding the immunogenicity of the TUMAPs of the present invention, the inventors performed investigations using an in vitro T-cell priming assay based on repeated stimulations of CD8+ T cells with artificial antigen presenting cells (aAPCs) loaded with peptide/MHC complexes and anti-CD28 antibody.
In order to perform in vitro stimulations by artificial antigen presenting cells loaded with peptide-MHC complex (pMHC) and anti-CD28 antibody, the inventors first isolated CD8+ T cells from fresh HLA-A*02 leukapheresis products via positive selection using CD8 microbeads (Miltenyi Biotec, Bergisch-Gladbach, Germany) of healthy donors obtained from the University clinics Mannheim, Germany, after informed consent.
PBMCs and isolated CD8+ lymphocytes were incubated in T-cell medium (TCM) until use consisting of RPMI-Glutamax (Invitrogen, Karlsruhe, Germany) supplemented with 10% heat inactivated human AB serum (PAN-Biotech, Aidenbach, Germany), 100 U/ml Penicillin/100 μg/ml Streptomycin (Cambrex, Cologne, Germany), 1 mM sodium pyruvate (CC Pro, Oberdorla, Germany), 20 μg/ml Gentamycin (Cambrex). 2.5 ng/ml IL7 (PromoCell, Heidelberg, Germany) and 10 U/ml IL-2 (Novartis Pharma, Nürnberg, Germany) were also added to the TCM at this step.
Generation of pMHC/anti-CD28 coated beads, T-cell stimulations and readout was performed in a highly defined in vitro system using four different pMHC molecules per stimulation condition and 8 different pMHC molecules per readout condition.
The purified co-stimulatory mouse IgG2a anti human CD28 Ab 9.3 (Jung et al., 1987) was chemically biotinylated using Sulfo-N-hydroxysuccinimidobiotin as recommended by the manufacturer (Perbio, Bonn, Germany). Beads used were 5.6 μm diameter streptavidin coated polystyrene particles (Bangs Laboratories, Illinois, USA).
pMHC used for positive and negative control stimulations were A*0201/MLA-001 (peptide […] (SEQ ID NO. 303) from modified Melan-A/MART-1) and A*0201/DDX5-001 ([…] from DDX5, SEQ ID NO. 304), respectively.
800.000 beads/200 μl were coated in 96-well plates in the presence of 4×12.5 ng different biotin-pMHC, washed and 600 ng biotin anti-CD28 were added subsequently in a volume of 200 μl. Stimulations were initiated in 96-well plates by co-incubating […] CD8+ T cells with 2×10^5 washed coated beads in 200 μl TCM supplemented with 5 ng/ml IL-12 (PromoCell) for 3 days at 37° C. Half of the medium was then exchanged by fresh TCM supplemented with 80 U/ml IL-2 and incubating was continued for 4 days at 37° C. This stimulation cycle was performed for a total of three times. For the pMHC multimer readout using 8 different pMHC molecules per condition, a two-dimensional combinatorial coding approach was used as previously described (Andersen et al., 2012) with minor modifications encompassing coupling to 5 different fluorochromes. […]

In the case of “96 (LLVSHLYLV; listed as Homo sapiens) [compound 96]”, the “Peptide exchange (MHC class I binding score, peptide exchange yield)” value (“Peptide exchange” for short) [1] is reported as “++ (20%-49% = ++)” and the “Wells positive [%] (in vitro immunogenicity)” value (“Wells positive [%]” below) [2] is reported as “++ (20%-49% = ++)”.

With “29 (YLLDPSITL; listed as Homo sapiens) [compound 29]” the “Peptide exchange” value [1] was “+++ (50%-75% = +++)” and the “Wells positive [%]” value [2] was “+ (<20% = +)”.

“11 (ALSPSYLTV; listed as Homo sapiens) [compound 11]” was tested, and the “Peptide exchange” value [1] was “+++ (50%-75% = +++)” and the “Wells positive [%]” value [2] was “++ (20%-49% = ++)”.

With “233 (HLFDAFVSV; listed as Homo sapiens) [compound 233]” the “Peptide exchange” value [1] was “+++ (50%-75% = +++)” and the “Wells positive [%]” value [2] was “++ (20%-49% = ++)”.

“23 (SLFSDEFKV; listed as Homo sapiens) [compound 23]” was tested, and the “Peptide exchange” value [1] was “+++ (50%-75% = +++)” and the “Wells positive [%]” value [2] was “++++ (> = 70% = ++++)”.

In the case of “7 (ILDHEVPSL; listed as Homo sapiens) [compound 7]”, the “Peptide exchange” value [1] is reported as “+++ (50%-75% = +++)” and the “Wells positive [%]” value [2] is reported as “++ (20%-49% = ++)”.

For “232 (KIFPAALQLV; listed as Homo sapiens) [compound 232]”, the “Peptide exchange” value [1] was “+++ (50%-75% = +++)” and the “Wells positive [%]” value [2] was “++ (20%-49% = ++)”.

In the case of “291 (KLDETGNSL; listed as Homo sapiens) [compound 291]”, the “Wells (in vitro immunogenicity)” value [2] is reported as “+ (<20% = +)”.

In the case of “4 (KLMPGTYTL; listed as Homo sapiens) [compound 4]”, the “Peptide exchange” value [1] is reported as “++++ (> = 75% = ++++)” and the “Wells positive [%]” value [2] is reported as “+ (<20% = +)”.

In the case of “138 (ALLAKILQI; listed as Homo sapiens) [compound 138]”, the “Peptide exchange” value [1] is reported as “+++ (50%-75% = +++)” and the “Wells positive [%]” value [2] is reported as “++ (20%-49% = ++)”.

For “26 (ALQEELTEL; listed as Homo sapiens) [compound 26]”, the “Peptide exchange” value [1] was “+++ (50%-75% = +++)” and the “Wells positive [%]” value [2] was “+ (<20% = +)”.

“235 (KIIDFLSAL; listed as Homo sapiens) [compound 235]” was tested, and the “Peptide exchange” value [1] was “+++ (50%-75% = +++)” and the “Wells positive [%]” value [2] was “+++ (50%-69% = +++)”.

“6 (ALFDSLRHV; listed as Homo sapiens) [compound 6]” was tested, and the “Peptide exchange” value [1] was “+++ (50%-75% = +++)” and the “Wells positive [%]” value [2] was “++ (20%-49% = ++)”.

In the case of “292 (GMMTAILGV; listed as Homo sapiens) [compound 292]”, the “Wells (in vitro immunogenicity)” value [2] is reported as “+ (<20% = +)”.

For “247 (ALYEGYATV; listed as Homo sapiens) [compound 247]”, the “Peptide exchange” value [1] was “+++ (50%-75% = +++)” and the “Wells positive [%]” value [2] was “++ (20%-49% = ++)”.

With “151 (SVLDSTAKV; listed as Homo sapiens) [compound 151]” the “Peptide exchange” value [1] was “++ (20%-49% = ++)” and the “Wells positive [%]” value [2] was “++ (20%-49% = ++)”.

For “149 (ILNTHITEL; listed as Homo sapiens) [compound 149]”, the “Peptide exchange” value [1] was “+++ (50%-75% = +++)” and the “Wells positive [%]” value [2] was “+ (<20% = +)”.

For “18 (ILLDLTDNRL; listed as Homo sapiens) [compound 18]”, the “Peptide exchange” value [1] was “+++ (50%-75% = +++)” and the “Wells positive [%]” value [2] was “+ (<20% = +)”.

For “293 (FLVDGSWSI; listed as Homo sapiens) [compound 293]”, the “Wells (in vitro immunogenicity)” value [2] was “+ (<20% = +)”.
